The values below come from US6716827B1, “Complexes for immobilizing isothiocyanate natural precursors in cyclodextrins, preparation and use” (Commissariat a l'Energie Atomique, priority 1998, dated 2004).

Series [1] is described as follows: Solubility in aqueous solution of benzyl isothiocyanate formed by myrosinase in the α-cyclodextrin complex, followed by NMR. It counts as physicochemical. As to conditions: complexed in α-cyclodextrin; formed by action of myrosinase on the glucosinolate complex; 50 mM deuterated phosphate buffer pH 6, 25° C. The protocol:
In this example, the inclusion complex formed in example 1 is converted into an inclusion complex of benzyl isothiocyanate in the cyclodextrin.
For this purpose, myrosinase is added to the solution of the complex prepared in example 1, then hydrolysis of the glucosinolate is followed under nuclear magnetic resonance.
The results are given in FIGS. 4, 5 and 6 which illustrate the NMR spectra obtained at 25° C. and 500 MHz, before the addition of myrosinase (FIG. 4), 1 hour after the addition of myrosinase (FIG. 5), and 17 hours after the addition of myrosinase (FIG. 6).

A short description of series [2]: Solubility in water of benzyl isothiocyanate. It counts as physicochemical. The settings on record: free compound, oily liquid.

Regarding `S=C=NCc1ccccc1` [benzyl isothiocyanate], the “solubility in an aqueous solution” value in series [1] is given as “soluble”. Besides, the solubility in water entry in series [2] is on record as “insoluble in water”.
